According to patent US20160030391A1, “METHODS AND COMPOSITIONS FOR IMPROVING COGNITIVE FUNCTION” (THE JOHNS HOPKINS UNIVERSITY, priority 2013, published 2016):
Where two headings read alike, the source gives them in different places.

How the values were obtained:
[1] = levetiracetam blood plasma levels in aMCI subjects; format: in vivo; conditions: human, upon completion of treatment, read-out: mean levetiracetam blood plasma level
Source text: At the end of the first drug/placebo period 2 weeks after the Baseline Visit, the medical, neurological and psychiatric evaluations and cognitive testing are repeated. The subject is also clinically evaluated for suicidal ideation. Blood is drawn again to repeat the standard tests and to determine whether there are any changes related to drug treatment; the subject's blood levetiracetam level is also obtained. All medication dispensed at the Baseline Visit (drug or placebo) is collected and subject compliance with the medication regimen is assessed. The first fMRI session (with cognitive tests) is conducted on the same day, either immediately before or immediately after the clinical assessment. Subjects discontinue first period treatment at this visit.
At approximately 2 weeks after the Washout Visit (i.e., 2 weeks after starting the second treatment period), the medical, neurological and psychiatric evaluations and the cognitive testing are repeated. The subject is clinically evaluated for suicidal ideation. Blood is drawn again to repeat the standard tests and to determine whether there were any changes related to drug treatment; the subject's blood levetiracetam level is also obtained. All medication dispensed at the Washout Visit is collected and subject compliance with the medication regimen is assessed. The second fMRI session (with cognitive tests) is repeated on the same day, either immediately before or immediately after the clinical assessment.
Human – in the human studies described in Examples 3 and 4, a subject's levetiracetam blood plasma level was assessed at each visit. The subject's blood was drawn by the Johns Hopkins Phlebotomy Service and analysis of levetiracetam blood plasma levels was conducted either by the Johns Hopkins Core laboratory or by MedTox Laboratories in St. Paul, Minn. for the 62.5 mg BID cohort, the 125 mg BID cohort and the 250 mg BID cohort.

aged-impaired (AI) rats = assay: eight-arm Radial Arm Maze task, one-hour delay, aged-impaired rats; format: in vivo, rat; conditions: for average no. of errors±SEM: one-hour delay; for effective in reducing the number of errors by AI rats in the radial arm maze: levetiracetam on its own
Method: The effects of levetiracetam on the spatial memory retention of aged-impaired (AI) rats were assessed in a Radial Arm Maze (RAM) behavioral task using vehicle control and five different dosage levels of levetiracetam (1.25 mg/kg/day, 2.5 mg/kg/day, 5 mg/kg/day, 10 mg/kg/day and 20 mg/kg/day). RAM behavioral tasks were preformed on ten AI rats. All six treatment conditions were tested on all ten rats, as described above for the MWM test. The RAM apparatus used consisted of eight equidistantly-spaced arms. An elevated maze arm (7 cm width x 75 cm length) projected from each facet of an octagonal center platform (30 cm diameter, 51.5 cm height). Clear side walls on the arms were 10 cm high and were angled at 65° to form a trough. A food well (4 cm diameter, 2 cm deep) was located at the distal end of each arm. Froot Loops™ (Kellogg Company) were used as rewards. Blocks constructed of Plexiglas™ (30 cm height x 12 cm width) could be positioned to prevent entry to any arm. Numerous extra maze cues surrounding the apparatus were also provided. The AI rats were initially subjected to a pre-training test (Chappell et al. Neuropharmacology 37: 481-487, 1998). The pre-training test consisted of a habituation phase (4 days), a training phase on the standard win-shift task (18 days) and another training phase (14 days) in which a brief delay was imposed between presentation of a subset of arms designated by the experimenter (e.g., 5 arms available and 3 arms blocked) and completion of the eight-arm win-shift task (i.e., with all eight arms available). In the habituation phase, rats were familiarized to the maze for an 8-minute session on four consecutive days. In each of these sessions food rewards were scattered on the RAM, initially on the center platform and arms and then progressively confined to the arms. After this habituation phase, a standard training protocol was used, in which a food pellet was located at the end of each arm. Rats received one trial each day for 18 days. Each daily trial terminated when all eight food pellets had been obtained or when either 16 choices were made or 15 minutes had elapsed. After completion of this training phase, a second training phase was carried out in which the memory demand was increased by imposing a brief delay during the trial. At the beginning of each trial, three arms of the eight-arm maze were blocked. Rats were allowed to obtain food on the five arms to which access was permitted during this initial ‘information phase’ of the trial. Rats were then removed from the maze for 60 seconds, during which time the barriers on the maze were removed, thus allowing access to all eight arms. Rats were then placed back onto the center platform and allowed to obtain the remaining food rewards during this ‘retention test’ phase of the trial. The identity and configuration of the blocked arms varied across trials. The number of “errors” the AI rats made during the retention test phase was tracked. An error occurred in the trial if the rats entered an arm from which food had already been retrieved in the pre-delay component of the trial, or if it re-visited an arm in the post-delay session that had already been visited. After completion of the pre-training test, rats were subjected to trials with more extended delay intervals, i.e., a one-hour delay, between the information phase (presentation with some blocked arms) and the retention test (presentation of all arms). During the delay interval, rats remained off to the side of the maze in the testing room, on carts in their individual home cages. AI rats were pretreated 30-40 minutes before daily trials with a one-time shot of the following six conditions: 1) vehicle control (0.9% saline solution); 2) levetiracetam (1.25 mg/kg/day); 3) levetiracetam (2.5 mg/kg/day); 4) levetiracetam (5 mg/kg/day); 5) levetiracetam (10 mg/kg/day); 6) levetiracetam (20 mg/kg/day); through intraperitoneal (i.p.) injection. Injections were given every other day with intervening washout days. […]

aMCI subjects = assay: Benton Visual Retention Test; format: in vivo, human; conditions: levetiracetam 125 mg twice a day for two weeks
Source text: Breaks are provided to the subject as needed.

CC[C@@H](C(N)=O)N1CCCC1=O [levetiracetam, (2S)-2-(2-oxopyrrolidin-1-yl)butanamide]
concentration at 2 weeks ([1]; 125 mg BID cohort): 4400 ng/mL
concentration at 2 weeks ([1]; oral, 62.5 mg BID cohort): 2880 ng/mL
concentration at 2 weeks ([1]; oral, 250 mg BID cohort): 7900 ng/mL
effective doses of levetiracetam used in the animal model (aged-impaired (AI) rats; given acutely, AI rats): 5 to 10 mg/kg
average no. of errors±SEM (aged-impaired (AI) rats; levetiracetam 5 mg/kg/day i.p.): 0.75±0.32
average no. of errors±SEM (aged-impaired (AI) rats; levetiracetam 10 mg/kg/day i.p.): 0.80±0.27
performance of AI rats in the radial maze task (aged-impaired (AI) rats; levetiracetam 20 mg/kg): fails to improve the performance
effective in reducing the number of errors by AI rats in the radial arm maze (aged-impaired (AI) rats; 1.25 mg/kg): not
effective in reducing the number of errors by AI rats in the radial arm maze (aged-impaired (AI) rats; 2.5 mg/kg): not
effective in reducing the number of errors by AI rats in the radial arm maze (aged-impaired (AI) rats; 5-10 mg/kg): effective
performance in Benton Visual Retention Test (aMCI subjects): fail to rescue performance
